{"source": "ChEMBL document CHEMBL4376829", "about": "“Discovery and biological evaluation of vinylsulfonamide derivatives as highly potent, covalent TEAD autopalmitoylation inhibitors” (Eur J Med Chem, 2019)", "key": {"[1]": {"biological_target": "Transcriptional enhancer factor TEF-3 (Homo sapiens, UniProt Q15561)", "assay": "Binding affinity to N-terminal His6-tagged human TEAD4-YBD (217 to 434 residues) expressed in Escherichia coli C43 (DE3) cells assessed as change in melting temperature at 1:1 ratio by SYPRO-dye based thermal shift assay"}, "[2]": {"system": "TGF-beta receptor type-1 (Homo sapiens), P36897 [T204D]", "sequence (P36897 whole entry T204D)": "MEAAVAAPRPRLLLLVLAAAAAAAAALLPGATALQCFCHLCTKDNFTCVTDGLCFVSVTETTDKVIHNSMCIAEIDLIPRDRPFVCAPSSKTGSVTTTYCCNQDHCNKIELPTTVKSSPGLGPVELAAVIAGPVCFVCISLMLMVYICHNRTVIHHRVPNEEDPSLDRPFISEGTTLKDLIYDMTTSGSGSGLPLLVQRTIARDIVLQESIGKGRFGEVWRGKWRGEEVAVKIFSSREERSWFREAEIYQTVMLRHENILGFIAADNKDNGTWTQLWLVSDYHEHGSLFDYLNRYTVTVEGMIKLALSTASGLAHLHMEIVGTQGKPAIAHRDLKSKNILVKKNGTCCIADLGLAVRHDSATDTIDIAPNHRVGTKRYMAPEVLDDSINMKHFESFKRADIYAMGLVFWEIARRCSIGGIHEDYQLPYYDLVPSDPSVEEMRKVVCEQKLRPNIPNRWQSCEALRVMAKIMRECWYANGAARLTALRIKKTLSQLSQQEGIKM", "assay": "Inhibition of recombinant human TGFBR1 T204D mutant (200 to end residues) at 10 uM using casein as substrate measured after 40 mins in presence of [gamm33P]ATP by scintillation counting method relative to control"}, "[3]": {"species": "Homo sapiens", "assay": "Inhibition of recombinant human TEC activated F514V mutant (174 to end residues) at 10 uM using EFPIYDFLPAKKK as substrate measured after 40 mins in presence of [gamm33P]ATP by scintillation counting method relative to control"}, "[4]": {"biological_target": "Tyrosine-protein kinase Lck (Homo sapiens) (UniProt P06239)", "assay": "Inhibition of recombinant full-length human LCK at 10 uM using KVEKIGEGTYGVVYK as substrate measured after 40 mins in presence of [gamm33P]ATP by scintillation counting method relative to control"}, "[5]": {"biological_target": "Tyrosine-protein kinase JAK2 (Homo sapiens) (UniProt O60674)", "sequence (O60674 whole entry)": "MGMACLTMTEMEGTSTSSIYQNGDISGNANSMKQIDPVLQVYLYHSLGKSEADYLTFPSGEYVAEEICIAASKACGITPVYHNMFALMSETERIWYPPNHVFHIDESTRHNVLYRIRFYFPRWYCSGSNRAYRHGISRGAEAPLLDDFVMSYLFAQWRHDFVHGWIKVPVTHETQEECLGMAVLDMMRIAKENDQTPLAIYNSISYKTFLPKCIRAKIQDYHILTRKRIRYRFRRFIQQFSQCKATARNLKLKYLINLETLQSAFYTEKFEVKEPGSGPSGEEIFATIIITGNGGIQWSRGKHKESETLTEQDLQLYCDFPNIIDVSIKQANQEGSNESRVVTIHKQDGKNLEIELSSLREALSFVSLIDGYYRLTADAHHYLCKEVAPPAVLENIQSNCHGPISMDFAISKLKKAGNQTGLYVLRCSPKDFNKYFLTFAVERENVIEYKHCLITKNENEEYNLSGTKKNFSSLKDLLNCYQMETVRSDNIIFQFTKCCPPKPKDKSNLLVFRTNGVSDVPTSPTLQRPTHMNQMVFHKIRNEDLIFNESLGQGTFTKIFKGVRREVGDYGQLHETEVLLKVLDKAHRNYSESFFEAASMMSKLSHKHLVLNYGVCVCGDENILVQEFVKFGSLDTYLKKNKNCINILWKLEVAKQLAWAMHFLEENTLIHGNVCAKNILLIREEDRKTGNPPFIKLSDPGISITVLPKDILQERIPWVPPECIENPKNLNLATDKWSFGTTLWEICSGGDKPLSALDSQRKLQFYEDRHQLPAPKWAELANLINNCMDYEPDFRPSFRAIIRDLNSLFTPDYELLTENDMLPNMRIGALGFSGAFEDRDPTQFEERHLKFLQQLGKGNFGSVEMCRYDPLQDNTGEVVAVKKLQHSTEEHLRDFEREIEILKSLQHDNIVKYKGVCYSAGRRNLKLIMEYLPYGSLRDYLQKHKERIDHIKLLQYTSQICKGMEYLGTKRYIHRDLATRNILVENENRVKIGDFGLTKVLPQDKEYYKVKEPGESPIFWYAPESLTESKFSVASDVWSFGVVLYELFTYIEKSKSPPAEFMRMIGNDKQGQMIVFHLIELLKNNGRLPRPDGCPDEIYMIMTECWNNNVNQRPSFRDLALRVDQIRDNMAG", "assay": "Inhibition of recombinant human JAK2 (808 to end residues) at 10 uM using KTFCGTPEYLAPEVRREPRILSEEEQEMFRDFDYIADWC as substrate measured after 40 mins in presence of [gamm33P]ATP by scintillation counting method relative to control"}, "[6]": {"biological_target": "Serine/threonine-protein kinase/endoribonuclease IRE1 (Homo sapiens) (UniProt O75460)", "assay": "Inhibition of recombinant human IRE1 (465 to end residues) at 10 uM using myelin basic protein as substrate measured after 40 mins in presence of [gamma33P]ATP by scintillation counting method relative to control"}, "[7]": {"biological_target": "Ribosomal protein S6 kinase alpha-1 (Homo sapiens) (UniProt Q15418)", "sequence (Q15418 whole entry)": "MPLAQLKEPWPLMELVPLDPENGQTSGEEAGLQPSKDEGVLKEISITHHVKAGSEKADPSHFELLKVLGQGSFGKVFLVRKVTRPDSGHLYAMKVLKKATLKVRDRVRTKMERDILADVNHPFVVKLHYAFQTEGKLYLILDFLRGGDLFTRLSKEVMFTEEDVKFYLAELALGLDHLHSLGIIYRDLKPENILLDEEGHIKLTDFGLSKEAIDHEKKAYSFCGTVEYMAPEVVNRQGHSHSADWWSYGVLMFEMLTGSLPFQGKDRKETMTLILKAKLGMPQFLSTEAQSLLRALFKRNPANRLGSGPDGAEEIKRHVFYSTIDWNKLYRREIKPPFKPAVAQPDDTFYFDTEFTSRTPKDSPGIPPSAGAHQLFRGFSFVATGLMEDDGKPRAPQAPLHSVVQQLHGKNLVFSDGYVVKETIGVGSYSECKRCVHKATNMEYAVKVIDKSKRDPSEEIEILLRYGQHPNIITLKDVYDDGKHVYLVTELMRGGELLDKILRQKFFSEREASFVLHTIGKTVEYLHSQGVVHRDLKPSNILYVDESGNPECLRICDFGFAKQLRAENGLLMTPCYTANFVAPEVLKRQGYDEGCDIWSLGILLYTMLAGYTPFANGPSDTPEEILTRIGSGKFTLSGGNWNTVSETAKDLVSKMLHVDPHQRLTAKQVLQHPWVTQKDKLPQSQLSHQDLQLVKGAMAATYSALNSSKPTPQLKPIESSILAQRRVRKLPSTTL", "assay": "Inhibition of full length recombinant human Rsk1 at 10 uM using KKKNRTLSVA as substrate after 40 mins in presence of [gamma33P]ATP by scintillation counting method relative to control"}, "[8]": {"biological_target": "Insulin-like growth factor 1 receptor (Homo sapiens) (UniProt P08069)", "assay": "Inhibition of recombinant human IGF1R (959 to end residues) at 10 uM using KKKSPGEYVNIEFG as substrate after 40 mins in presence of [gamma33P]ATP by scintillation counting method relative to control"}, "[9]": {"biological_target": "Macrophage colony-stimulating factor 1 receptor (Homo sapiens) (UniProt P07333)", "assay": "Inhibition of recombinant human FMS (538 to end residues) at 10 uM using KKKSPGEYVNIEFG as substrate after 40 mins in presence of [gamma33P]ATP by scintillation counting method relative to control"}, "[10]": {"biological_target": "Interferon-induced, double-stranded RNA-activated protein kinase (Homo sapiens) (UniProt P19525)", "assay": "Inhibition of recombinant human PKR (252 to end residues) at 10 uM using RSRSRSRSRSRSRSR as substrate measured after 40 mins in presence of [gamma33P]ATP by scintillation counting method relative to control"}, "[11]": {"system": "Phosphorylase b kinase gamma catalytic chain, liver/testis isoform (Homo sapiens), P15735 [F290L]", "sequence (P15735 whole entry F290L, the tested form may be a part, canonical isoform)": "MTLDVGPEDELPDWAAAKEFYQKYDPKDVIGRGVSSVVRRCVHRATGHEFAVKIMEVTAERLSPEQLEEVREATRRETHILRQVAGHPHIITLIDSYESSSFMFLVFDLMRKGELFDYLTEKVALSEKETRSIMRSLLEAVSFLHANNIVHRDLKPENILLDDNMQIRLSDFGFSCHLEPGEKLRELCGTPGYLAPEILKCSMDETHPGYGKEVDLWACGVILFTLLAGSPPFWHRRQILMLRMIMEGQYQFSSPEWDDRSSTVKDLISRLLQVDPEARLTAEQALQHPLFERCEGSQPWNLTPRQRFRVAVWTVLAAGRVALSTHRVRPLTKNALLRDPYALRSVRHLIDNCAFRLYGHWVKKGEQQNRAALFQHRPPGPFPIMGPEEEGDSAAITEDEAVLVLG", "assay": "Inhibition of recombinant human PhKgamma2 F290L mutant (1 to 301 residues) at 10 uM using KKLNRTLSFAEPG as substrate measured after 40 mins in presence of [gamma33P]ATP by scintillation counting method relative to control"}, "[12]": {"biological_target": "Phosphorylase b kinase gamma catalytic chain, skeletal muscle/heart isoform (Homo sapiens) (UniProt Q16816)", "assay": "Inhibition of full-length recombinant human PHKgamma1 at 10 uM using KKLNRTLSFAEPG as substrate after 120 mins by in presence of [gamma33P]ATP by scintillation counting method relative to control"}, "[13]": {"biological_target": "Casein kinase I isoform delta (Homo sapiens) (UniProt P48730)", "sequence (P48730 whole entry, looked up, the tested form may be a part, canonical isoform)": "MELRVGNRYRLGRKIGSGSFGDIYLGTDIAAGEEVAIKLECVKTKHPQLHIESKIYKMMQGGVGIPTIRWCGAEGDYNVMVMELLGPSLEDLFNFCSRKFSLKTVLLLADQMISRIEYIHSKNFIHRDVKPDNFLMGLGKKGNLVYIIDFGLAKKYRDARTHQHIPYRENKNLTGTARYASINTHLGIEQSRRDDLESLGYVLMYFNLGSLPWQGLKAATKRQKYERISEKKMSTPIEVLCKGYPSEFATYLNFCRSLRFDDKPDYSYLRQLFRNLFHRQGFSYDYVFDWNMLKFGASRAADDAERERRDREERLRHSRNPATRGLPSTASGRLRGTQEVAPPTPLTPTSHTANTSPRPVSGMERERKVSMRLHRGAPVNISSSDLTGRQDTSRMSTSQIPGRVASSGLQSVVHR", "assay": "Inhibition of recombinant human CK1delta (1 to 294 residues) at 10 uM using KRRRALS(p)VASLPGL as substrate measured after 40 mins in presence of [gamma33P]ATP by scintillation counting method relative to control"}, "[14]": {"biological_target": "Serine/threonine-protein kinase Nek1 (Homo sapiens) (UniProt Q96PY6)", "assay": "Inhibition of recombinant human NEK1 (1 to 505 residues) at 10 uM using RLGRDKYKTLRQIRQ as substrate measured after 40 mins in presence of [gamma33P]ATP by scintillation counting method relative to control"}, "[15]": {"biological_target": "Serine/threonine-protein kinase 38-like (Homo sapiens) (UniProt Q9Y2H1)", "sequence (Q9Y2H1 2-464 limits assumed)": "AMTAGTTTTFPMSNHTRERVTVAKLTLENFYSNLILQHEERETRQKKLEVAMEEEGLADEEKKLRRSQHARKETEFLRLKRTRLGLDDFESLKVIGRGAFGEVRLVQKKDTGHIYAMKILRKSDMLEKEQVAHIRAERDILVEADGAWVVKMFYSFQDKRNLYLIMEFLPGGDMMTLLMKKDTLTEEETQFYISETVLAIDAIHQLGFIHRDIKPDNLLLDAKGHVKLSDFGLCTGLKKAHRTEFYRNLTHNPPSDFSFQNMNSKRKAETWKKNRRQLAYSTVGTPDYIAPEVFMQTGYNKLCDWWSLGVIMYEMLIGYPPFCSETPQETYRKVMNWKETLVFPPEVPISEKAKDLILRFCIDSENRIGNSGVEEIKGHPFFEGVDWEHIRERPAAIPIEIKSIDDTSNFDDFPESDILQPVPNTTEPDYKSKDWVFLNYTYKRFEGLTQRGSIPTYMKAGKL", "assay": "Inhibition of recombinant human NDR2 (83 to end residues) at 10 uM using RSRSRSRSRSRSRSR as substrate measured after 40 mins in presence of [gamma33P]ATP by scintillation counting method relative to control"}, "[16]": {"biological_target": "Serine/threonine-protein kinase mTOR (Homo sapiens) (UniProt P42345)", "assay": "Inhibition of recombinant full-length human mTOR at 10 uM after 40 mins in presence of [gamma33P]ATP by scintillation counting analysis relative to control"}, "[17]": {"biological_target": "Calcium/calmodulin-dependent protein kinase type IV (Homo sapiens) (UniProt Q16566)", "assay": "Inhibition of full-length recombinant human Camk4 at 10 uM using calmodulin as substrate after 40 mins by in presence of [gamma33P]ATP by scintillation counting method relative to control"}, "[18]": {"biological_target": "Mitogen-activated protein kinase kinase kinase 9 (Homo sapiens) (UniProt P80192)", "assay": "Inhibition of recombinant human MLK1 (134 to 414 residues) at 10 uM using casein as substrate measured after 40 mins in presence of [gamma33P]ATP by scintillation counting method relative to control"}, "[19]": {"biological_target": "Calcium/calmodulin-dependent protein kinase type 1 (Homo sapiens) (UniProt Q14012)", "assay": "Inhibition of recombinant full length human CAMK1 (2 to end residues) at 10 uM using […] as substrate incubated for 40 mins in presence of [gamma-33P]-ATP by scintillation counting method relative to control"}, "[20]": {"biological_target": "Tyrosine-protein kinase BTK (Homo sapiens) (UniProt Q06187)", "sequence (Q06187 whole entry)": "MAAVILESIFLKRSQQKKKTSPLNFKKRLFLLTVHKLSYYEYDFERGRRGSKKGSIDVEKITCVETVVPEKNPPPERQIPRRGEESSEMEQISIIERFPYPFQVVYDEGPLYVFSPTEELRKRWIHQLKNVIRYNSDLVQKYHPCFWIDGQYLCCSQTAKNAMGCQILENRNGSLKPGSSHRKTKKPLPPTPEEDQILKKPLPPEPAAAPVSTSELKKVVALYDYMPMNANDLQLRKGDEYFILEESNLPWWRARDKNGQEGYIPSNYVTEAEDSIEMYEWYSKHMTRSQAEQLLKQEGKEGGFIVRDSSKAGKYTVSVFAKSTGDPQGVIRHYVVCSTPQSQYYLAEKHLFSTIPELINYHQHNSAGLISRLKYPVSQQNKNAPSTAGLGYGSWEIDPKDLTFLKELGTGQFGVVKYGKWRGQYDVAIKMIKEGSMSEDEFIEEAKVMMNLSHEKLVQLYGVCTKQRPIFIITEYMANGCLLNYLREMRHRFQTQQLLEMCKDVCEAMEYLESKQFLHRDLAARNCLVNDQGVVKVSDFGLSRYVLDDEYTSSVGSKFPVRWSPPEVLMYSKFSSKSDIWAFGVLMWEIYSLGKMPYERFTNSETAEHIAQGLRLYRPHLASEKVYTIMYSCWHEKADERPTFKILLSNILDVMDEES", "assay": "Inhibition of full-length recombinant human BTK at 10 uM using KVEKIGEGTYGVVYK as substrate measured after 40 mins in presence of [gamma33P]ATP by scintillation counting method relative to control"}, "[21]": {"biological_target": "5'-AMP-activated protein kinase catalytic subunit alpha-1 (Homo sapiens) (UniProt Q13131)", "assay": "Inhibition of recombinant full length human AMPKalpha1 at 10 uM using AMARAASAAALARRR as substrate after 40 mins in presence of [gamma33P]ATP by scintillation counting method relative to control"}, "[22]": {"biological_target": "Protein arginine N-methyltransferase 1 (Homo sapiens) (UniProt Q99873)", "sequence (Q99873 whole entry, looked up)": "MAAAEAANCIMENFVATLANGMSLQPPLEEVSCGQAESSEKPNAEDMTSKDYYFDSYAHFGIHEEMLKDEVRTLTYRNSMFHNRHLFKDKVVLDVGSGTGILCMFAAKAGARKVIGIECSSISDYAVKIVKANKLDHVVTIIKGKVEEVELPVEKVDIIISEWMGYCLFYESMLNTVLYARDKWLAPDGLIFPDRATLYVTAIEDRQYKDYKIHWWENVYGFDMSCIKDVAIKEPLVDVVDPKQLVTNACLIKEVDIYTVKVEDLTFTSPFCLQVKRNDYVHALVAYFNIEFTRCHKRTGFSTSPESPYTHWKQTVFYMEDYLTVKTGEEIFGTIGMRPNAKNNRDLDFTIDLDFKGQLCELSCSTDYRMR", "assay": "Inhibition of human PRMT1 at 10 uM after 1 hr by radioisotope-based assay relative to control"}}, "data": [{"smiles": "C=CS(=O)(=O)Nc1ccc(Cc2ccc3ccccc3c2)cc1", "values": [{"measurement": "ΔTm", "setting": "[1]", "value": "7 to 7.2", "unit": "°C"}, {"measurement": "inhibition", "setting": "[2]", "value": -2, "unit": "%"}, {"measurement": "inhibition", "setting": "[3]", "value": -8, "unit": "%"}, {"measurement": "inhibition", "setting": "[4]", "value": 6, "unit": "%"}, {"measurement": "inhibition", "setting": "[5]", "value": 6, "unit": "%"}, {"measurement": "inhibition", "setting": "[6]", "value": -4, "unit": "%"}, {"measurement": "inhibition", "setting": "[7]", "value": 22, "unit": "%"}, {"measurement": "inhibition", "setting": "[8]", "value": -6, "unit": "%"}, {"measurement": "inhibition", "setting": "[9]", "value": 3, "unit": "%"}, {"measurement": "inhibition", "setting": "[10]", "value": -8, "unit": "%"}, {"measurement": "inhibition", "setting": "[11]", "value": 6, "unit": "%"}, {"measurement": "inhibition", "setting": "[12]", "value": -3, "unit": "%"}, {"measurement": "inhibition", "setting": "[13]", "value": 3, "unit": "%"}, {"measurement": "inhibition", "setting": "[14]", "value": -6, "unit": "%"}, {"measurement": "inhibition", "setting": "[15]", "value": -6, "unit": "%"}, {"measurement": "inhibition", "setting": "[16]", "value": 5, "unit": "%"}, {"measurement": "inhibition", "setting": "[17]", "value": 2, "unit": "%"}, {"measurement": "inhibition", "setting": "[18]", "value": 8, "unit": "%"}, {"measurement": "inhibition", "setting": "[19]", "value": 6, "unit": "%"}, {"measurement": "inhibition", "setting": "[20]", "value": 5, "unit": "%"}, {"measurement": "inhibition", "setting": "[21]", "value": 2, "unit": "%"}, {"measurement": "inhibition", "setting": "[22]", "value": 3, "unit": "%"}]}]}
